Reference: US20120064528A1, “METHODS AND REAGENTS FOR QUANTIFYING NUCLEIC ACID FRAGMENTATION AND APOPTOSIS (QLM-PCR, CELL NUMBER QPCR AND APOQPCR)” (THE MACFARLANE BURNET INSTITUTE FOR MEDICAL RESEARCH AND …, priority 2010, published 2012)
Entries after “also recorded” stand apart in the source; their conditions may differ.

Legend:
[1] = system: Jurkat cells; test: Genomic DNA fragmentation by agarose gel electrophoresis and trace intensity; format: cell-based, human; details: 5 hours
Description: Jurkat cells were grown to log phase in RF-10 tissue culture medium, pelleted and resuspended to 10^6 cells/ ml in new RF-10 at 37° C., and incubated at 37° C. with or without staurosporine (at 4 or 8 μM) for 5 and 6 hours. At the end-points, genomic DNA was purified using Qiagen DNA mini-prep columns following the manufacturer's recommendations, including RNase treatment and stored at −80° C. These columns quantitatively purify nucleic acid in the target size range of 200 by to 50 kbp. Nucleic acid for each end-point was compared by agarose gel electrophoresis. The generation of 100% apoptotic nucleic acid was defined as the complete absence of any typically high molecular weight genomic nucleic acid and complete conversion of this length of nucleic acid into apoptotic fragments, as determined by trace intensity using a GelDoc Imager (BioRad). […] The same experiment from cell culture to nucleic acid purification was repeated to test reproducibility. Nucleic acid from both experiments was electrophoresed together and trace intensities compared (FIG. 2C).

[2] = system: Jurkat cells; test: Apoptosis measured by TUNEL with flow cytometry; format: cell-based, human
Description: To verify the definition of 100% apoptotic DNA, apoptosis was measured by TUNEL with flow cytometry from fractions of the same cultured cells used for genomic nucleic acid purification (above). At each time point and each staurosporine concentration, cells (6 ml) were collected, washed twice with PBS and resuspended in PBS to 2×10^7 cells/ml for duplicate 100 μl cells per micro-well. TUNEL procedure for cell suspensions followed the In Situ Cell Death Detection Kit, Flourescein (Roche, Mannheim, Germany) with the following modifications: after pelleting cells in wells, supernatant was aspirated and cells gently resuspended in 100 μl/well of fixation/permeabilisation solution (Cytofix/Cytoperm kit, BD Biosciences/Pharmingen, CA, USA). After incubation for 20 minutes at 4° C., cells were washed at this and subsequent wash stages 2 times at room temperature with perm/wash buffer (Cytofix/Cytoperm kit). After final washes, cells were resuspended in 250 μl/well 1% paraformaldehyde in PBS, stored at 4° C. in the dark for up to 12 hours and analyzed by flow cytometry at excitation 488 nm, detection 530 nm using a BD FACScan (BD Biosciences). At each measurement at least 10,000 events were sorted. Mean TUNEL positivity for cells incubated for 5 hours without staurosporine was 3%, while positivity for cells incubated for 5 hours with 8 μM staurosporine was 98.5% (FIG. 3).

## CN[C@@H]1C[C@H]2O[C@@](C)([C@@H]1OC)n1c3ccccc3c3c4c(c5c6ccccc6n2c5c31)C(=O)NC4 [staurosporine]
[1]; 4 μM staurosporine, 37° C.
  unfragmented high molecular weight genomic nucleic acid remaining, by trace quantification: 1.8%
[1]; 8 μM staurosporine, 37° C. (optimal conditions)
  DNA fragmentation as determined by trace analysis: all DNA was fragmented; also recorded: unfragmented nucleic acid was not detected
[2]; 8 μM staurosporine, 5 hours
  Mean TUNEL positivity: 98.5%
[2]; optimal test conditions
  apoptotic cells by TUNEL with flow cytometry (FACS): 99%
